{"source": "patent US20140243239A1", "about": "“MULTIPLEXED KINASE INHIBITOR BEADS AND USES THEREOF” (University of North Carolina at Chapel Hill, priority 2011, published 2014)", "key": {"RTKs": {"tested_on": "RTKs", "experiment": "RTK expression in C3Tag tumors (western blot)", "assay_type": "in vivo, mouse", "protocol": "(§1) Treatment began the same day. Tumor size was assessed twice weekly by caliper measurements of tumor areas ((width)2×length))/2 for 21 days. […] Drugs were incorporated into the diet of mice to achieve a daily dose of AZD6244 20 mg/kg and sorafenib 30 mg/kg. […] Tumors at harvest were cut in half and either snap-frozen in liquid nitrogen and stored at −80° C. or placed in neutral buffered 10% formalin solution.\n(§2) Western blotting: Proteins from cell lysates were separated by SDS-PAGE chromatography, transferred to nitrocellulose membranes, and probed with the indicated primary antibodies. Antibodies recognizing pAKT (S473), pAKT (T308), AURA, pAXL (Y702), AXL, c-Myc, DDR1, EGFR, pERK1/2 (T202/Y204), pHER3 (Y1197), MAX, pMEK1/2 (S217/S221), MEK1/2, MKP3, pP70S6K (T389), pPDGFRβ (Y751), pPDGFRβ (Y1009), pPDGFR (Y857), PDGFRβ, pRAF (S338), pRSK1 (T359/S363), pVEGFR2 (Y1175), VEGFR2 were obtained from Cell Signaling Technology. Antibodies for Cyclin A2, Cyclin B1, Cyclin D1, ERK2, RAF, and pRAF (S259) were obtained from Santa Cruz Biotechnology. The antibody recognizing Bim was obtained from Chemicon. The antibody recognizing p-c-Myc (S62) was obtained from Abeam. Secondary HRP-anti-rabbit and HRP-anti-goat secondary antibodies were from Jackson Immunoresearch Laboratories and Santa Cruz Biotechnology, respectively. Western blots were visualized by incubation with SuperSignal West Pico Chemiluminescent Substrate (Thermo Scientific)."}, "ERK": {"tested_on": "ERK", "experiment": "MEK/ERK activation in C3Tag tumors (western blot)", "assay_type": "in vivo, mouse", "conditions": "AZD6244 20 mg/kg 28 days; sorafenib 30 mg/kg 26 days", "protocol": "as §1\nas §2, with “Western blots were visualized by incubation with SuperSignal West Pico Chemiluminescent Substrate (Thermo Scientific).” left out"}, "SUM159-R cells": {"tested_on": "SUM159-R cells", "experiment": "Growth of AZD6244-resistant SUM159-R cells", "assay_type": "cell-based, human", "conditions": "25 μM AZD6244", "protocol": "(§3) Cell Culture: MDA-MB-231 cells were grown in DMEM/F12 supplemented with 10% FBS. SUM-159 cells were grown in DMEM/F12 supplemented with 10% FBS 1 μg/mL hydrocortisone, and 5 μg/mL insulin. SUM159-R cells were continually grown in the presence of 5 μM AZD6244. For SILAC labeling, cells were grown for five doublings in arginine- and lysine-depleted media (as above) supplemented with either unlabeled L-arginine (42 mg/L) and L-lysine (71 mg/L) or equimolar amounts of heavy isotope labeled [13C6,15N4]arginine (Arg10) and [13C6]lysine (Lys6) (Cambridge Isotope Laboratories). Proliferation was quantified using Cell-Titer Glo Luminescent Cell Viability Assay (Promega). Fresh media containing DMSO or kinase inhibitors was added daily and experiments were performed in triplicate.\nGeneration of AZD6244 resistant SUM159 cells: SUM159 cells were cultured in DMEM/F12 supplemented with 10% FBS media containing 5 μM AZD6244. Media was changed every 2 days, maintaining inhibitor concentrations of 5 μM AZD6244."}, "c-Myc": {"tested_on": "c-Myc", "experiment": "c-Myc protein and RNA levels in SUM159 cells (western blot, qRT-PCR)", "assay_type": "cell-based, human", "conditions": "5 μM AZD6244", "protocol": "Western blotting and RTK arrays: Western blotting and RTK array analysis were performed as previously described (Amin et al., 2010). Amin et al. 2010 Sci Transl Med 2, 16ra17. Detailed methods and antibodies are provided in Supplemental Experimental Procedures.\nqRT-PCR: Total RNA was isolated from human breast cancer cell lines or murine tumors using the RNeasy® Plus Mini Kit (Qiagen). Real-time RT-PCR was performed on diluted cDNA using the Applied Biosystems 7500 Fast Real-Time PCR System (standard program) and inventoried TaqMan® Gene Expression Assays. Each cDNA sample was assayed in triplicate. Fold change with respect to the calibrator represents the average of the triplicate values, with error bars representing the range of the mean (95% confidence).\nas §2"}, "ERK1/2": {"tested_on": "ERK1/2", "experiment": "Western blot of MEK/ERK signaling in SUM159 cells", "assay_type": "cell-based, human", "conditions": "15 min-4 h, SUM159 and MDA-MB-231 cells", "text": "Detailed methods and antibodies are provided in Supplemental Experimental Procedures.\nas §2"}, "SUM159 cells": {"tested_on": "SUM159 cells", "experiment": "SUM159 cell growth (Cell-Titer Glo, cell counts)", "assay_type": "cell-based, human", "conditions": "5 μM MEK inhibitor (FIG. 2A)", "protocol": "as §3"}, "MDA-MB-231 cells": {"tested_on": "MDA-MB-231 cells", "experiment": "MDA-MB-231 cell growth (Cell-Titer Glo)", "assay_type": "cell-based, human", "conditions": "5 μM MEK inhibitor (FIG. 9A)", "protocol": "as §3"}}}
{"smiles": "Cn1cnc2c(F)c(Nc3ccc(Br)cc3Cl)c(C(=O)NOCCO)cc21", "note": "[AZD6244]", "values": [{"measurement": "expression of RTKs in C3Tag tumors versus untreated", "setting": "RTKs; AZD6244 20 mg/kg 28 days, sorafenib 30 mg/kg 26 days", "value": "elevated"}, {"measurement": "PDGFRβ expression in C3Tag tumors", "setting": "RTKs; AZD6244 20 mg/kg, 2 and 7 days", "value": "strongly induced"}, {"measurement": "tumor MEK and ERK compared to untreated animals", "setting": "ERK", "value": "strongly activated"}, {"measurement": "growth of SUM159-R cells", "setting": "SUM159-R cells", "value": "growth arrested"}, {"measurement": "c-Myc protein and mRNA", "setting": "c-Myc", "value": "rapid loss of c-Myc protein and c-Myc mRNA"}, {"measurement": "MEK and ERK, early response", "setting": "ERK1/2", "value": "rapidly inhibited"}, {"measurement": "growth of SUM159 cells", "setting": "SUM159 cells", "value": "inhibited growth"}, {"measurement": "growth of MDA-MB-231 cells", "setting": "MDA-MB-231 cells", "value": "inhibited growth"}]}
